Values of other authors, collected in publication PMC12697872, “Rethinking the AI Paradigm for Solubility Prediction of Drug‑Like Compounds with Dual‐Perspective Modeling and Experimental Validation” (Advanced Science, 2025).
Where two headings read alike, the source gives them in different places.

Experiments:
[1] = cited from earlier work; for LogS(mol/L): SC2-1 dataset (Second Solubility Challenge, tight subset), aqueous solubility; for Class: SC2-1 dataset, aqueous solubility class 0-6
[2] = experimental aqueous solubility as logS, cited from earlier work
[3] = sheet "DrugBank", ref DrugBank database
[4] = sheet "DrugBank" of Supplement 2, ref DrugBank

| Structure (SMILES) | LogS(mol/L) [1] [mol/L] | Class [1] | ex_logS [2, 3] | ex_logS [2, 4] |
| --- | --- | --- | --- | --- |
| O=C1CN=C(c2ccccn2)c2cc(Br)ccc2N1 [O=C1CN=C(c2ccccn2)c2cc(Br)ccc2N1] | -3.39 | 5 (Very slightly soluble (5)) |  |  |
| O=C1C(O)=C(C2CCC(c3ccc(Cl)cc3)CC2)C(=O)c2ccccc21 (centres unmarked) | -6.07 | 6 (Practically insoluble or insoluble (6)) |  |  |
| CCCNC(=O)NS(=O)(=O)c1ccc(Cl)cc1 [CCCNC(=O)NS(=O)(=O)c1ccc(Cl)cc1] | -3.17 | 5 (Very slightly soluble (5)) |  |  |
| CC(C(=O)O)c1ccc(-c2ccccc2)c(F)c1 (centres unmarked) [CC(C(=O)O)c1ccc(-c2ccccc2)c(F)c1] | -4.34 | 6 (Practically insoluble or insoluble (6)) |  |  |
| Nc1nc(=O)c2nc(CNc3ccc(C(=O)N[C@@H](CCC(=O)O)C(=O)O)cc3)cnc2[nH]1 | -5.96 | 6 (Practically insoluble or insoluble (6)) |  |  |
| CC(CN1c2ccccc2Sc2ccccc21)N(C)C (centres unmarked) [CC(CN1c2ccccc2Sc2ccccc21)N(C)C] | -4.38 | 6 (Practically insoluble or insoluble (6)) |  |  |
| COc1cc(N)c(Cl)cc1C(=O)NC1CCN(CCCOc2ccc(F)cc2)CC1OC (centres unmarked) | -6.78 | 6 (Practically insoluble or insoluble (6)) |  |  |
| NS(=O)(=O)c1cc2c(cc1Cl)NC(CSCc1ccccc1)=NS2(=O)=O | -4.84 | 6 (Practically insoluble or insoluble (6)) |  |  |
| CCC1(c2ccccc2)C(=O)NCNC1=O [CCC1(c2ccccc2)C(=O)NCNC1=O] | -2.53 | 5 (Very slightly soluble (5)) |  |  |
| Cc1ccccc1N1C(=O)c2cc(S(N)(=O)=O)c(Cl)cc2NC1C (centres unmarked) | -3.88 | 6 (Practically insoluble or insoluble (6)) |  |  |
| COc1ccc(Cc2nccc3cc(OC)c(OC)cc23)cc1OC [COc1ccc(Cc2nccc3cc(OC)c(OC)cc23)cc1OC] | -4.33 | 6 (Practically insoluble or insoluble (6)) |  |  |
| O=C1CCc2cc(OCCCCc3nnnn3C3CCCCC3)ccc2N1 [O=C1CCc2cc(OCCCCc3nnnn3C3CCCCC3)ccc2N1] | -4.93 | 6 (Practically insoluble or insoluble (6)) |  |  |
| CCn1cc(C(=O)O)c(=O)c2cc(F)c(N3CCNCC3)cc21 | -2.88 | 5 (Very slightly soluble (5)) |  |  |
| Nc1ccc(N=Nc2ccccc2)c(N)n1 [Nc1ccc(N=Nc2ccccc2)c(N)n1] | -4.02 | 6 (Practically insoluble or insoluble (6)) |  |  |
| CO/N=C(\C(=O)N[C@@H]1C(=O)N2C(C(=O)O)=C(CSc3nnnn3C)CS[C@H]12)c1csc(N)n1 | -3.27 | 5 (Very slightly soluble (5)) |  |  |
| O=c1[nH]c(=O)c2[nH]cnc2[nH]1 [O=c1[nH]c(=O)c2[nH]cnc2[nH]1] |  | 6 (Practically insoluble or insoluble (6)) |  |  |
| c1ccc(Nc2ccccc2)cc1 [c1ccc(Nc2ccccc2)cc1] |  | 6 (Practically insoluble or insoluble (6)) |  |  |
| COc1ccc2cc(CCC(C)=O)ccc2c1 [COc1ccc2cc(CCC(C)=O)ccc2c1] | -4.4 | 6 (Practically insoluble or insoluble (6)) |  |  |
| O=C1Nc2ccc(Cl)cc2C(c2ccccc2)=NC1O (centres unmarked) [O=C1Nc2ccc(Cl)cc2C(c2ccccc2)=NC1O] |  | 6 (Practically insoluble or insoluble (6)) |  |  |
| C[C@@H]1C[C@H]2[C@@H]3CCC4=CC(=O)C=C[C@]4(C)[C@@]3(F)[C@@H](O)C[C@]2(C)[C@@]1(O)C(=O)CO | -3.56 | 5 (Very slightly soluble (5)) |  |  |

| Structure (SMILES) | LogS(mol/L) [1] [mol/L] | Class [1] | ex_logS [2, 3] | ex_logS [2, 4] |
| --- | --- | --- | --- | --- |
| CCCCC1C(=O)N(c2ccccc2)N(c2ccc(O)cc2)C1=O (centres unmarked) [CCCCC1C(=O)N(c2ccccc2)N(c2ccc(O)cc2)C1=O] | -3.94 | 6 (Practically insoluble or insoluble (6)) |  |  |
| Nc1nc(N)c2nc(-c3ccccc3)c(N)nc2n1 [Nc1nc(N)c2nc(-c3ccccc3)c(N)nc2n1] | -4.11 | 6 (Practically insoluble or insoluble (6)) |  |  |
| C/C=C/C1=C(C(=O)O)N2C(=O)[C@@H](NC(=O)[C@H](N)c3ccc(O)cc3)[C@H]2SC1 | -1.68 | 4 (Slightly soluble (4)) |  |  |
| CC(=O)S[C@@H]1CC2=CC(=O)CC[C@]2(C)[C@H]2CC[C@@]3(C)[C@@H](CC[C@@]34CCC(=O)O4)[C@H]12 | -4.21 | 6 (Practically insoluble or insoluble (6)) |  |  |
| Nc1ccc(S(=O)(=O)Nc2nccs2)cc1 [Nc1ccc(S(=O)(=O)Nc2nccs2)cc1] | -2.62 | 5 (Very slightly soluble (5)) |  |  |
| CC(C)NCC(O)COc1cccc2[nH]ccc12 (centres unmarked) [CC(C)NCC(O)COc1cccc2[nH]ccc12] | -3.75 | 6 (Practically insoluble or insoluble (6)) |  |  |
| CC(=O)Oc1ccccc1C(=O)O [CC(=O)Oc1ccccc1C(=O)O] | -1.67 | 4 (Slightly soluble (4)) |  |  |
| Cc1ccc(-c2cc(C(F)(F)F)nn2-c2ccc(S(N)(=O)=O)cc2)cc1 | -5.89 | 6 (Practically insoluble or insoluble (6)) |  |  |
| CC(=O)N1CCN(c2ccc(OC[C@H]3CO[C@](Cn4ccnc4)(c4ccc(Cl)cc4Cl)O3)cc2)CC1 (racemic) | -5.47 | 6 (Practically insoluble or insoluble (6)) |  |  |
| COc1ccc2c(c1OC)C(=O)O[C@@H]2[C@H]1c2c(cc3c(c2OC)OCO3)CCN1C | -4.48 | 6 (Practically insoluble or insoluble (6)) |  |  |
| CC1=NS(=O)(=O)c2cc(Cl)ccc2N1 [CC1=NS(=O)(=O)c2cc(Cl)ccc2N1] | -3.43 | 6 (Practically insoluble or insoluble (6)) |  |  |
| COc1cc([C@@H]2c3cc4c(cc3[C@@H](O[C@@H]3O[C@@H]5CO[C@@H](C)O[C@H]5[C@H](O)[C@H]3O)C3COC(=O)[C@@H]32)OCO4)cc(OC)c1O (some centres unmarked) | -3.6 | 5 (Very slightly soluble (5)) |  |  |
| O=C(CCCN1CCC(O)(c2ccc(Cl)cc2)CC1)c1ccc(F)cc1 | -5.71 | 6 (Practically insoluble or insoluble (6)) |  |  |
| CC(=O)Nc1nnc(S(N)(=O)=O)s1 [CC(=O)Nc1nnc(S(N)(=O)=O)s1] | -2.38 | 5 (Very slightly soluble (5)) |  |  |
| CCOc1nc2cccc(C(=O)OC(C)OC(=O)OC3CCCCC3)c2n1Cc1ccc(-c2ccccc2-c2nn[nH]n2)cc1 (centres unmarked) | -6.79 | 6 (Practically insoluble or insoluble (6)) |  |  |
| Cc1ccnc2c1NC(=O)c1cccnc1N2C1CC1 [Cc1ccnc2c1NC(=O)c1cccnc1N2C1CC1] |  | 5 (Very slightly soluble (5)) |  |  |
| C[C@]12C[C@H](O)[C@H]3[C@@H](CCC4=CC(=O)CC[C@@]43C)[C@@H]1CC[C@@H]2C(=O)CO | -3.29 | 5 (Very slightly soluble (5)) |  |  |
| N[C@@H](Cc1ccc(O)c(O)c1)C(=O)O [N[C@@H](Cc1ccc(O)c(O)c1)C(=O)O] | -1.76 | 4 (Slightly soluble (4)) |  |  |
| CCCCNc1ccc(C(=O)OCCN(C)C)cc1 [CCCCNc1ccc(C(=O)OCCN(C)C)cc1] | -3.11 | 5 (Very slightly soluble (5)) |  |  |
| CC(C(=O)O)c1ccc(N2Cc3ccccc3C2=O)cc1 (centres unmarked) [CC(C(=O)O)c1ccc(N2Cc3ccccc3C2=O)cc1] | -4.65 | 6 (Practically insoluble or insoluble (6)) |  |  |

| Structure (SMILES) | LogS(mol/L) [1] [mol/L] | Class [1] | ex_logS [2, 3] | ex_logS [2, 4] |
| --- | --- | --- | --- | --- |
| CN1CCN(c2cc3c(cc2F)c(=O)c(C(=O)O)cn3-c2ccc(F)cc2)CC1 | -3.83 | 6 (Practically insoluble or insoluble (6)) |  |  |
| O=C1CCc2ccc(OCCCCN3CCN(c4cccc(Cl)c4Cl)CC3)cc2N1 | -6.64 | 6 (Practically insoluble or insoluble (6)) |  |  |
| Cc1c(O)cccc1C(=O)N[C@@H](CSc1ccccc1)[C@H](O)CN1C[C@H]2CCCC[C@H]2C[C@H]1C(=O)NC(C)(C)C | -6.21 | 6 (Practically insoluble or insoluble (6)) |  |  |
| CN(C)CCCN1c2ccccc2Sc2ccccc21 [CN(C)CCCN1c2ccccc2Sc2ccccc21] | -4.45 | 6 (Practically insoluble or insoluble (6)) |  |  |
| COc1ccc2c(c1)c(CC(=O)O)c(C)n2C(=O)c1ccc(Cl)cc1 | -5.48 | 6 (Practically insoluble or insoluble (6)) |  |  |
| COc1ccc([C@@H]2CC(=O)c3c(O)cc(O)cc3O2)cc1O [Hesperetin] |  |  | -3.044 |  |
| OC(O)C(Cl)(Cl)Cl [Chloral hydrate] |  |  |  | 0.6807 |
| CCC[C@H](NC(=O)[C@@H]1[C@H]2CCC[C@H]2CN1C(=O)[C@@H](NC(=O)[C@@H](NC(=O)c1cnccn1)C1CCCCC1)C(C)(C)C)C(=O)C(=O)NC1CC1 [Telaprevir] |  |  | -5.16 |  |
| O=C(O)CC(=O)O [Malonic acid] |  |  |  | 0.8652 |
| CCn1cc(C(=O)O)c(=O)c2ccc(-c3ccncc3)cc21 [Rosoxacin] |  |  | -4.149 |  |
| CC(C)[C@@H]1CC[C@@H](C)C[C@H]1O [Levomenthol] |  |  |  | -2.504 |
| C[C@@H]1C[C@H]2[C@@H]3CCC4=CC(=O)C=C[C@]4(C)[C@@]3(F)[C@@H](O)C[C@]2(C)[C@H]1C(=O)CO [Desoximetasone] |  |  |  | -3.951 |
| Cc1oncc1C(=O)Nc1ccc(C(F)(F)F)cc1 [Leflunomide] |  |  | -4.109 |  |
| O=C(O)CCCC[C@@H]1SC[C@@H]2NC(=O)N[C@@H]21 [Biotin] |  |  | -3.046 |  |
| C[C@H](N)[C@@H](O)c1ccccc1 [Cathine] |  |  | -0.8785 |  |
| C[C@@H]1O[C@@H](OC[C@H]2O[C@@H](Oc3c(-c4ccc(O)c(O)c4)oc4cc(O)cc(O)c4c3=O)[C@H](O)[C@@H](O)[C@@H]2O)[C@H](O)[C@H](O)[C@H]1O [Rutin] |  |  | -3.689 |  |
| COc1cc(NS(=O)(=O)c2ccc(N)cc2)nc(OC)n1 [Sulfadimethoxine] |  |  | -2.957 |  |
| CC(C)NCC1CCc2cc(CO)c([N+](=O)[O-])cc2N1 (centres unmarked) [Oxamniquine] |  |  |  | -2.532 |
| O=C(O)c1cccnc1 [Niacin] |  |  | -0.835 |  |
| CC(CN1c2ccccc2Sc2ccccc21)N(C)C (centres unmarked) [Promethazine] |  |  | -4.261 |  |
